This note sets out measurements from ChEMBL document CHEMBL1201862, “PubChem BioAssay data set” (2004).

For experiment [1], the target named is T1, SUMO-activating enzyme (Homo sapiens, UniProt Q9UBT2). The experiment is described as follows: blockers of UBC9-mediated SUMO conjugation – biochemical, AlphaScreen, SUMOylation inhibitor project, confirmation (AID 2018). The class given is functional.
The target of experiment [2] is T1, SUMO-activating enzyme. The experiment can be described thus: blockers of SAE1/SAE2–UBC9 SUMO transfer – biochemical, HTRF, uHTS, primary screen (AID 2006). The format is protein-complex assay. (TR-FRET usually uses a lanthanide donor and a delayed reading to cut background.)
Experiment [3] has as its target Albumin (Bos taurus, UniProt P02769). The experiment is described as follows: Counterscreen for inhibitors of T-cell receptor (TCR)-CD3 interaction: Fluorescence-based biochemical high throughput dose response assay to identify inhibitors of T-cell receptor (TCR)-CD3 interaction using a TAMRA-labeled BSA probe. The class given is functional.
Experiment [4] is described as follows: activation of miR-122 Renilla sensor silencing – cell-based, Huh7 psiCHECK-miR122, Renilla luciferase, cherry-picked, dose response (AID 651956).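 Further: huh7 hepatoma cells stably carrying a psiCHECK-2 miR-122 sensor plasmid; renilla luciferase signal reporting endogenous miR-122 activity after 48 h compound exposure.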 The class given is functional.
Experiment [5] is described as follows: general mammalian cell viability loss – inhibitor set, cherry-pick, set 2, cytotoxicity control for miR-122 modulator project, dose response (AID 720697). The class given is functional, cell-based.
Experiment [6] is described as follows: general mammalian cell viability loss – activator set, cherry-pick, cytotoxicity control for miR-122 modulator project, dose response (AID 720690).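 Further: HEK293T human cells scored for general mammalian cytotoxicity.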 The class given is functional, cell-based.
A short description of experiment [7]: reduction of Shn3 3'UTR-driven luciferase in osteoblasts – cell-based, Clone20 osteoblasts, firefly luciferase, cherry-picked, dose response (AID 624132).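 Further: firefly luciferase luminescence from reporter carrying the Shn3 3'UTR in osteoblasts.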 The format is functional.
Experiment [8] is described as follows: loss of viability in HepG2 cells – cell-based, CellTiter-Glo, cherry-picked, cytotoxicity control for Shn3 inhibitor project, dose response (AID 624134). The format is functional. A general note: Cellular ATP, detected with luciferase, serves as a proxy for viable cell number.
Experiment [9] is described as follows: blockers of HIV-1 envelope-mediated cell-cell fusion – cherry-pick, dose response (AID 652057). The class given is functional, cell-based.
A short description of experiment [10]: viability loss in CEM21 cells – cell-based, CellTiter-Glo luminescence, cherry-picked, cytotoxicity control for viral fusion inhibitor project, dose response (AID 652042).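 Further: potency for signal decrease meaning cytotoxicity.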 The format is functional.
Experiment [11] can be described thus: blockers of HIV-1 ZM109 envelope-driven cell-cell fusion – HeLa effector, CEM target cells, luciferase, cherry-pick, dose response (AID 652058).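 Further: luciferase signal from HIV-1 Env mediated cell-cell fusion of effector and target cells.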 The class given is functional, cell-based.
Experiment [12] concerns the target Paired box protein Pax-8 (Homo sapiens, UniProt Q06710). The experiment can be described thus: PAX8 transcriptional activity inhibition in RMG-I – RMG-I cells, luciferase, cherry-pick, dose response (AID 687027).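 Further: luciferase reporter driven by Pax8 target thyroperoxidase promoter measured by SteadyGlo luminescence.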 The format is functional, cell-based.
The nature of experiment [13]: off-target signal loss in HeLa-CEM21 co-culture – HeLa F-luc CTL cells, cherry-picked, counter-screen for HIV-1 Env fusion inhibitor project, dose response (AID 652040).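 Further: potency for signal decrease marking cytotoxic or nonspecific inhibition.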 The class given is functional, cell-based.
Experiment [14] in a line: HIV-1 AD8 envelope cell-cell fusion blockers – cherry-pick, dose response (AID 652062).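 Further: luciferase signal from cell-cell fusion driven by HIV-1 clade B AD8 Env; potency is for inhibitors of fusion seen as a drop in luminescence.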 The class given is functional, cell-based.
The nature of experiment [15]: A549 cell cytotoxicity, dose response, cytotoxicity control, plate reader, cherry-pick, antagonist series (AID 743412). The format is functional, cell-based.
Experiment [16] in a line: toxicity toward HepG2 liver cells – cell-based, plate reader, cherry-pick, antagonist series, cytotoxicity control, dose response (AID 743416). The class given is functional.
The nature of experiment [17]: blockers of bursicon-stimulated LGR2 cAMP reporter – cell-based, HEK293, CRE-luciferase reporter, cherry pick, set 2, dose response (AID 743343).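 Further: transfected cells were stimulated with diluted bursicon conditioned medium after compound addition.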 The format is functional.
Experiment [18] is described as follows: blockade of melanocortin 4 receptor signaling – cell-based, plate reader, cherry pick, counter-screen for LGR2 antagonist project, dose response (AID 743444).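 Further: transfected HEK 293 cells stimulated with alpha-MSH peptide; potency of inhibitors of the alpha-MSH evoked signal.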 The format is functional.
Experiment [19] has as its target Fructose-bisphosphate aldolase (Mycobacterium tuberculosis, UniProt P9WQA3). The experiment is described as follows: Fluorescence-based biochemical high throughput dose response assay for inhibitors of the fructose-bisphosphate aldolase (FBA) of M. tuberculosis. The format is functional.
Experiment [20] can be described thus: Trypanosoma cruzi growth suppression in host cells – NIH3T3 host cells, beta-gal luminescence, confirmation (AID 2044).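 Further: intracellular parasites grown in NIH/3T3 mouse fibroblasts as host cells; luminescent beta-galactosidase reporter signal from transgenic T. cruzi replicating inside host cells; inhibitors lower the luminescence signal.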 The format is functional, cell-based.
The nature of experiment [21]: NIH3T3 cell viability loss – ATP luminescence, mouse fibroblasts, counter-screen, dose response (AID 2010).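 Further: cells exposed to compound for about 90 hours before reading.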 Particulars: NIH3T3. The format is functional, cell-based.
Experiment [22] relates to HeLa. The experiment is described as follows: viability loss in HeLa cells – cell-based, ATP luminescence, cherry-pick samples, cytotoxicity control, dose response (AID 687004). The class given is functional. Particulars: Homo sapiens.
The target of experiment [23] is T2, Sentrin-specific protease 8 (Homo sapiens, UniProt Q96LD8).
T2 sequence (Q96LD8 whole entry): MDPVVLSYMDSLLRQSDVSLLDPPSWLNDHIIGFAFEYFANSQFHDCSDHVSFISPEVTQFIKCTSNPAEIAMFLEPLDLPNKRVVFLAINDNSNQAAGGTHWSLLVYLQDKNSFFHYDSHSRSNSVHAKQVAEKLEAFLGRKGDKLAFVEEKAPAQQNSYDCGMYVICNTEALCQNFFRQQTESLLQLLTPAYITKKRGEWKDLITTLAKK
The class given is functional.

Experiment [24] has as its target T2, Sentrin-specific protease 8. The class given is functional. This is another data set of the same source.
Experiment [25] deals with T3, Caspase-3 (Homo sapiens, UniProt P42574).
T3 sequence (P42574 whole entry): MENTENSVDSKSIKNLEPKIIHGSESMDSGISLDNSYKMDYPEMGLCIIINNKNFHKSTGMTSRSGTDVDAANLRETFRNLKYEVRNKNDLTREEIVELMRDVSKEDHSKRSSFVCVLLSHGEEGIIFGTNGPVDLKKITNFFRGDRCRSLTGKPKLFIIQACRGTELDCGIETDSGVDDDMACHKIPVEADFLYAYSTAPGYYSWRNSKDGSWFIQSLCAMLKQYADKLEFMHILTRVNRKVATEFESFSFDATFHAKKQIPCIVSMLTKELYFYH
The experiment can be described thus: Dose-response confirmation of uHTS inhibitor hits of Sentrin-Specific Protease 8 in a Caspase-3 Fluorescence assay. The format is functional.

The nature of experiment [26]: viability loss in HepG2 hepatoma cells – cell-based, ATP luminescence, cherry-pick, activator set 2, cytotoxicity control, dose response (AID 1053143). The class given is functional.
The nature of experiment [27]: Luminescence Cell-Based Dose Confirmation HTS to Identify Activators of 5'UTR Stem-Loop Driven Alpha-Synuclein mRNA Translation in H4 Neuroglioblastoma Cells. [Related pubchem assays: 1829 (Project Summary), 1814 (Primary HTS)]. The class given is functional.
Experiment [28] is described as follows: Luminescence Cell-Based Dose Response HTS to Identify Activators of Luciferase Translation or Activity in H4 […] Cells. [Related pubchem assays: 1829 (Project Summary), 1814 (Primary HTS)]. The class given is functional.
For experiment [29], the system named is H4. The experiment can be described thus: Luminescence Cell-Based Dose Response HTS to Identify Activators of 5'UTR Stem-Loop Driven Prion Protein mRNA Translation in H4 Neuroglioblastoma Cells. [Related pubchem assays: 1829 (Project Summary), 1814 (Primary HTS)]. The format is functional. Particulars: Homo sapiens.
Experiment [30] addresses SWI/SNF-related matrix-associated actin-dependent regulator of chromatin subfamily A member 2 (Homo sapiens, UniProt P51531). The experiment can be described thus: Luminescence-based cell-based high throughput dose response assay to identify activators of the function of SWI/SNF related, matrix associated, actin dependent regulator of chromatin, subfamily a, member 2 (SMARCA2, BRM). The format is functional.

The nature of experiment [31]: Counterscreen for activators of the function of SWI/SNF related, matrix associated, actin dependent regulator of chromatin, subfamily a, member 2 (SMARCA2, BRM): Luminescence-based cell-based high throughput dose response assay to identify non-selective compounds using the VP16 reporter assay. The format is functional.

The structures appear in SMILES notation. Active and inactive are the calls of the source.

T1 sequence (Q9UBE0 whole entry): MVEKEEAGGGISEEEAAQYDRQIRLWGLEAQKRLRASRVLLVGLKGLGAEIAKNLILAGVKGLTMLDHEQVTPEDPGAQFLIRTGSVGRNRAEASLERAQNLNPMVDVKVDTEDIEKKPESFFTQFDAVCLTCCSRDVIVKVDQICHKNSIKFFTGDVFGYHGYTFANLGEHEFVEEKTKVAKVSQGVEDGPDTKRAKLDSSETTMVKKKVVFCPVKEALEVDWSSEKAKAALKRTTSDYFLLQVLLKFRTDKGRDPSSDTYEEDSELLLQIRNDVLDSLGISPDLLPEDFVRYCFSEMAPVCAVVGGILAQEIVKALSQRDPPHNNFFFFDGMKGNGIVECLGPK
T1 sequence (Q9UBT2 whole entry): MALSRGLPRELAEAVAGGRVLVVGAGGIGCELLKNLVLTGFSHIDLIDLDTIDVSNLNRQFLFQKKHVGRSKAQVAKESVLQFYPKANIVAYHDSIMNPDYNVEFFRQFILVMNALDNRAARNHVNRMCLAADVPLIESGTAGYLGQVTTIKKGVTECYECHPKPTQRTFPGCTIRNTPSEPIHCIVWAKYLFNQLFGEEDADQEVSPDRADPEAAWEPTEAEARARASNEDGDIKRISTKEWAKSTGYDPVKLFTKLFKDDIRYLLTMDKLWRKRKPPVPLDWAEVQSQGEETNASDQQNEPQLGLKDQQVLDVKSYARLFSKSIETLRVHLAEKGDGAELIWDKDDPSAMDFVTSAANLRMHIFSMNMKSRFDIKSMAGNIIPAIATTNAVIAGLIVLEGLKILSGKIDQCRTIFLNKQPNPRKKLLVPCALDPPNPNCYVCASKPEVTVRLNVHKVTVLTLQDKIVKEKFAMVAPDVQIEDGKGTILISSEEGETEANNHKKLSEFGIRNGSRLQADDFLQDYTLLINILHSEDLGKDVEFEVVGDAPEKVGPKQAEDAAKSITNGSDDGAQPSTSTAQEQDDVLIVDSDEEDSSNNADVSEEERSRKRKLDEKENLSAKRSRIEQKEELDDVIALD
Fructose-bisphosphate aldolase, sequence (P9WQA3 whole entry): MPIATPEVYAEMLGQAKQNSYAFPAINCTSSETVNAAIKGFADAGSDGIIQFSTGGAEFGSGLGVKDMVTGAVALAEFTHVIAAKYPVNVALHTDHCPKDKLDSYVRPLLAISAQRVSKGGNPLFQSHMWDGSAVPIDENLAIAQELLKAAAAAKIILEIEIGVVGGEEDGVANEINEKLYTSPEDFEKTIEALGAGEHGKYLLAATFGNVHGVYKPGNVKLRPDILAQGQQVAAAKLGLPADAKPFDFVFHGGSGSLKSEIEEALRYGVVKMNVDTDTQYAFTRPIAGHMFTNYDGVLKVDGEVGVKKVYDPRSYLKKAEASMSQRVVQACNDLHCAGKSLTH
SWI/SNF-related matrix-associated actin-dependent regulator of chromatin subfamily A member 2, sequence (P51531 whole entry): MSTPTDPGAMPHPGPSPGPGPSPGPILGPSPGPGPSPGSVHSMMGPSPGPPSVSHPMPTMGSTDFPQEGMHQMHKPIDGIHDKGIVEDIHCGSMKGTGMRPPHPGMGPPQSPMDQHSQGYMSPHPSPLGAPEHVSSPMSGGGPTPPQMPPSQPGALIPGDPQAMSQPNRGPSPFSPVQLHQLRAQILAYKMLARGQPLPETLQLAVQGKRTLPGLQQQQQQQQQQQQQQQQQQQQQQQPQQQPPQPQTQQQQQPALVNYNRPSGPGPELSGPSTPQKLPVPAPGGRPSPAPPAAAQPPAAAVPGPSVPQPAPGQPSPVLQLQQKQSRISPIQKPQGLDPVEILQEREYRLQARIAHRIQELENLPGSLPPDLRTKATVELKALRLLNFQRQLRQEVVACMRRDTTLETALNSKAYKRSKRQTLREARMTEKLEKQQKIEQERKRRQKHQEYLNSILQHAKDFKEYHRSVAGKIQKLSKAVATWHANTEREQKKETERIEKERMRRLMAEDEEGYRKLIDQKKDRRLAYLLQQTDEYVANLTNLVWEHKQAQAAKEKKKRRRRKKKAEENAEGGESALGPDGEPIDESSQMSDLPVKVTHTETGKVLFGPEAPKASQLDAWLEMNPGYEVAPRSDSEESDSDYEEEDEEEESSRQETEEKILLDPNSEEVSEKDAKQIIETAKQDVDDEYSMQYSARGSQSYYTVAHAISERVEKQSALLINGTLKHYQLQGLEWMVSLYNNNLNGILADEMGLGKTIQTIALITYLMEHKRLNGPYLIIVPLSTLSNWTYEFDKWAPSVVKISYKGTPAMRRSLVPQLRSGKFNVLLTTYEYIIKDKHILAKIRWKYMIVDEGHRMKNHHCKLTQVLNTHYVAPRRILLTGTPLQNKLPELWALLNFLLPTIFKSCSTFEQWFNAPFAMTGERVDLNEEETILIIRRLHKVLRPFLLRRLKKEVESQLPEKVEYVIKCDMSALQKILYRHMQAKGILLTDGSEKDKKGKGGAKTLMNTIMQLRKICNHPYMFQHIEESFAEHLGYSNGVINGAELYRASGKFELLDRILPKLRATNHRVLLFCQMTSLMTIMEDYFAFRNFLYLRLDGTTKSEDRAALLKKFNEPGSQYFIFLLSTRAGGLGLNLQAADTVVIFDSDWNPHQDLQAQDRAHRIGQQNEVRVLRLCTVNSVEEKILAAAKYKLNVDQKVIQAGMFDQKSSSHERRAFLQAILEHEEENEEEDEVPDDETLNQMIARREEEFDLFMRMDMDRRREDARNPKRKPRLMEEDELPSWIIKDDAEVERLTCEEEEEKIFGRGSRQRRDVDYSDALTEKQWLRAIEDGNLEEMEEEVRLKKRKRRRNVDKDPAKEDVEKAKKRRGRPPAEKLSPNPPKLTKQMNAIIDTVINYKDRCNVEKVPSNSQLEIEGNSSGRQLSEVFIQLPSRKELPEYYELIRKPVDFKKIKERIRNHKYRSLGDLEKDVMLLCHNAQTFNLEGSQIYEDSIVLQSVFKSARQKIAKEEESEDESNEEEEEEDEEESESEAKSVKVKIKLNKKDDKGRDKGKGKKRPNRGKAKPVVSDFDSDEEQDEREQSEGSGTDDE
Albumin, sequence (P02769 whole entry): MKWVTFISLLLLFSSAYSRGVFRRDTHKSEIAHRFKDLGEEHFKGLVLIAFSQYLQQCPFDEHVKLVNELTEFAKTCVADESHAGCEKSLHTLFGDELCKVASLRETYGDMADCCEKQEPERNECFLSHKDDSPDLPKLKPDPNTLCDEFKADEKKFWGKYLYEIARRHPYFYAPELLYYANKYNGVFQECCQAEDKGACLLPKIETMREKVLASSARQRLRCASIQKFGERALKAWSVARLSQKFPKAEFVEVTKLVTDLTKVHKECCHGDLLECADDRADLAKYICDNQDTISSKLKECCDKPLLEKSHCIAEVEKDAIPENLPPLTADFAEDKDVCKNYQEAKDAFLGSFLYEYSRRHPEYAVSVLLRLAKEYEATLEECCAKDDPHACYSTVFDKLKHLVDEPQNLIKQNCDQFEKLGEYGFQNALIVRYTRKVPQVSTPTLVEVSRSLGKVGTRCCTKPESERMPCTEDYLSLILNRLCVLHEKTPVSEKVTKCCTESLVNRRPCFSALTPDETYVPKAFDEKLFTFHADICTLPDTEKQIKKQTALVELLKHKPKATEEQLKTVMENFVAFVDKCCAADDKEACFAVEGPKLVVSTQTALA
Paired box protein Pax-8, sequence (Q06710 whole entry, the tested form may be a part): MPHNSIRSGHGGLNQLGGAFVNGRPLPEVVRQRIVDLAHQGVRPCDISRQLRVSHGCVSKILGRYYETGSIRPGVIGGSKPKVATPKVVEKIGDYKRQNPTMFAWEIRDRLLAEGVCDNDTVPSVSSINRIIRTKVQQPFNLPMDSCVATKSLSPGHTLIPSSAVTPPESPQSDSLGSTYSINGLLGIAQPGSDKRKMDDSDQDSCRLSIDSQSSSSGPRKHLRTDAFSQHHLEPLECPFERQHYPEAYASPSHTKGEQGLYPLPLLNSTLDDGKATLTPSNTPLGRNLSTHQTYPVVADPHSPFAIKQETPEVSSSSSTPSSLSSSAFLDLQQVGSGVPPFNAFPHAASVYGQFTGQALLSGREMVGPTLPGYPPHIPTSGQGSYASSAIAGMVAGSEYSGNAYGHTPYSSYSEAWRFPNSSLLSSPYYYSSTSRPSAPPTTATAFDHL

For `Cc1c(NC(=S)N/N=C/c2cc([N+](=O)[O-])ccc2O)c(=O)n(-c2ccccc2)n1C`, the half-inhibitory concentration (IC50) in experiment [1] is 1.64 µM (active); in [2], 11.4 µM (active); in [3], > 94.1 µM (inactive).
Turning to `C[C@@H]1CN([C@@H](C)CO)C(=O)c2cc(NC(=O)Nc3cccc4ccccc34)ccc2O[C@@H](C)CCCCO[C@@H]1CN(C)CC1CCCCC1`, the AC50 in experiment [4] was 11.6 µM (active); in experiment [5], 6.05 µM (active); in experiment [6], 30.5 µM (active).
For the compound `O=C(Nc1cccc(-c2ccc(N3CCCCC3)nn2)c1)C(F)(F)F`, the AC50 in experiment [7] is 9.07 µM (active); in experiment [8], 33.1 µM (active); in [9] it was 3.47 µM (active); in experiment [10], 34.1 µM (active); in [11], 34.1 µM (active); in experiment [12], 3.04 µM (active). Also, the AC50 was 9.6 µM (active) in experiment [13]; 6.31 µM (active) in experiment [14]; 30.2 µM (active) in [15]; 43.6 µM (active) in experiment [16]; 2.61 µM (active) in experiment [17]; 1.41 µM (active) in [18].
Regarding `Cc1ccc(-c2nc3ncccc3o2)cc1NC(=O)C(C)C`, the IC50 in experiment [19] was 1.5 µM (active).
With `CCOc1ccc(C(=O)NC(=S)Nc2ccccc2N2CCC(C)CC2)cc1[N+](=O)[O-]`, the figures for the EC50 in [20] and in experiment [21] were 1.32 µM (active) and > 60 µM (not active), respectively. Further, in experiment [22], the AC50 was > 52 µM (inactive).
For `O=C1CC(N2CCOCC2)=NN1c1ccc([N+](=O)[O-])cc1`, the IC50 in [23] was 11.7 µM (active); in experiment [24] it was 24.6 µM (active); in experiment [25], 100 µM (inactive).
Consider `O=C(NCCOc1ccccc1F)C1CC(=O)N(Cc2ccccc2)C1` (configuration not stated), for which the AC50 in experiment [26] is > 52 µM (inactive).
In the case of `CC(=O)Nc1ccc2c(c1)C(=O)N(C)[C@@H]1CC[C@H](CC(=O)NC3CCCCC3)O[C@H]1CO2`, the AC50 in experiment [5] was 0.457 µM (active).
As to `CC(C)c1ccc(/C=N/NC(=O)c2c(Cl)cnn2C)cc1`, the EC50 in experiment [27] is 9.9 µM (active); in experiment [28], 0.251 µM (active); in [29] it was 27.5 µM (active); in experiment [30], > 91.2 µM (inactive); in experiment [31], > 91.2 µM (inactive).

A word on the IC50: it is the concentration that gives 50% inhibition. Usually AC50 stands for the midpoint of the concentration-response curve, whichever way the signal moves. A word on the EC50: it is the concentration giving half of the maximal effect.
